Measured values reported in patent US20240140953A1, “INHIBITORS OF MENIN-MLL INTERACTION” (BIOMEA FUSION, INC., priority 2018, published 2024).
Read-outs that look alike come from different tables or passages of the source. One block for each compound: values may come before it.

Columns and labels:
HL-60 [1] = assay: LTP assay, CellTiterGlo, T4-T14 (Example 103), HL-60; type: cell-based; conditions: for IC50: Homo sapiens
Protocol: (§1) The day of the experiment (T0) all the cell line suspensions were counted by Cell Viability Analyser, Vi-CELL and properly diluted with fresh medium to obtain the cell density reported in the Test System paragraph.
(§2) Cells were tested after 4 passages after thawing.
(§3) 200 μL/well and 150 μL/well of cell suspension were added into the 0.4 μL/well and 0.3 μL/well compound plates, respectively. • Cell plate containing 200 μL/well suspension was incubated at 37° C. in a humidified incubator with 5% CO2. • From each well of the 150 μL/well cell assay plate, 100 μL were harvested and transferred into a 96-well Optiplate (Perkin Elmer, Cat. n. 6005290) and cell viability was measured as described in 4.3 paragraphs (T0).
(§4) After four days in culture (T4) 150 μL/well of fresh medium were added into a new 0.3 μL/well copy compound plate. • From each well of the 200 μL/well cell assay plate: • 100 μL were sampled for the cell viability measurement as described in 4.3 paragraphs (T4). • 50 μL were harvested and added to the 150 μL/well compound plate prepared as described in the first point to dilute 1:4 the cell suspension. • The cell assay plate diluted and containing 200 μL/well suspension were incubated at 37° C. in a humidified incubator with 5% Co2.
(§5) At T7-T11-T14 it was proceeded as described in T4, with the exception that no further cell dilution was carried out at T14.
(§6) Plates containing the samples to be tested were equilibrated at room temperature for approximately 30 min and then 30 μL/well of the Promega CellTiterGlo® reagent were added.
(§7) Contents will be mixed for 5 min on an orbital shaker to induce cell lysis and then incubated at room temperature for an additional 10 min to stabilize the luminescent signal.
(§8) Luminescence was read by using VictorV (Perkin Elmer) multilabel plate reader using the standard protocol for luminescence in 96 well plate.
(§9) Data were expressed as % of inhibition compared to the 0.2% DMSO negative control, and was calculated as follows: […]
(§10) CRCs were analysed by GraphPad and IC50 values were calculated by non-linear regression using 4 parameter-logistic equation. IC50 (μM) values were reported in the final data table.
(§11) The curve fittings were performed leaving free all the parameters. Any constrain were reported in the results table.

MOLM-13 (MLL-AF9) [2] = assay: LTP assay, CellTiterGlo, T4-T14 (Example 103), MOLM-13; type: cell-based, human; conditions: for IC50: Homo sapiens
Protocol: as §1, §2, §3, §4, §5, §6, §7, §8, §9, §10, §11

MV4-11 (MLL-AF4) [3] = assay: LTP assay, CellTiterGlo, T4-T14 (Example 103), MV4-11; type: cell-based, human; conditions: for IC50: Homo sapiens
Protocol: as §1, §2, §3, §4, §5, §6, §7, §8, §9, §10, §11

RS4-11 (MLL-AF4) = assay: LTP assay, CellTiterGlo, T4-T14 (Example 103), RS4-11; type: cell-based; conditions: for IC50: Homo sapiens
Protocol: as §1, §2, §3, §4, §5, §6, §7, §8, §9, §10, §11

HL-60 [4] = assay: Proliferation study, CellTiterGlo, 4 days (Example 102), HL-60; type: cell-based; conditions: HL-60, 4 days treatment
Excerpt: (§12) The objective of the study was to evaluate the ability of representative compounds of the present invention, inhibitors of Menin/MLL interaction to inhibit cell proliferation. The proliferation inhibitory effect was investigated in two human MLL-leukemia cells selected on the bases of MLL fusion protein and listed in Table 102. HL-60 cell line was used as negative control.
(§13) ATP is present in all metabolically active cells and is considered as a marker for cell viability and proliferation. The metabolic cell activity was determined using the CellTiter-Glo kit from Promega, an ATP monitoring system based on the production of luminescence by the reaction of ATP with added UltraGlo® recombinant luciferase (Kawano et al., 2016), according to the supplier's experimental recommendations.
(§14) The described assay evaluates the ability of 4 representative compounds to inhibit the cell proliferation in the human MLL-leukemia cells plus a negative control cell line.
(§15) The assay provides potency values (IC50) for each test compound at a single time point Day 4 (T4).
(§16) Seven concentrations of the compounds (2.00E-05-6.67E-06-2.22E-06-7.41E-07-2.47E-07-8.23E-08-2.74E-08M), were assessed in duplicate in an individual test occasion in all the cell lines. MI-503 (Borkin et al., 2015) was used as reference compound and was tested at the same concentrations as the NCEs. 100% of proliferation is represented by the untreated cells (0.2% DMSO). The cell growth was monitored up to 4 days in culture.
(§17) MV4-11, MOLM-13 and HL-60 cells (see Table 2) were maintained in RPMI-1640 medium (Invitrogen, Cat. n. 618700, Batch n. 1965930) supplemented with 10% of Heat Inactivated FBS (Invitrogen, Cat n. 10500, Batch n. 08Q8078K) and 1% Pen-Strep (Invitrogen, Cat. N. 15140, Batch n. 1910859) and cultured at 37° C. in a humidified incubator with 5% CO2. All the cell lines grow in suspension and the cell density was maintained in a range of 2×10^5-1×10^6 viable cells/ml. Cells were pelleted at 130 g×5 min and conditioned medium was used to dilute the cell suspension.
(§18) Test items were dissolved in glass vials at 10 mM in DMSO with purity ≥99.9% (Sigma, D8418, batch n. SHBH4245V) and stored at −20° C. in 1.5 mL Eppendorf tubes.
(§19) Serial dilutions 1 to 3 in DMSO 100% were prepared starting from a 10 mM stock solutions to generate 7 points concentration response curve (CRC).
(§20) For each plate to test, one 0.4 μL copy plate and four 0.3 μL copy plates were then stamped into 96-well plates not treated for cell adhesion (Sarstedt—cat.no. 82.1581.001) by acoustic liquid Handling, Echo, at a concentration which was 500 fold the final assay concentration. Stamped plates were stored at −20° C. The final concentrations for the reference compound, MI-503, and the test items were: 2.00E-05, 6.67E-06, 2.22E-06, 7.41E-07, 2.47E-07, 8.23E-08 and 2.74E-08 M.
(§21) Cells were plated in 96-well flat bottom microtiter plates at cell density of 15,000 cells/ml for HL-60, 1000 cells/ml for MOLM-13 and 10,000 cell/ml for MV4-11. Cells were treated with 0.2% DMSO (Sigma, D8418, batch n. SHBH4245V) or serial dilutions of compounds (0.027 μM-20 μM) in DMSO (0.2% final concentration). Cells were incubated in a 5% CO2 incubator at 37° C. for 4 days. A CellTiterGlo viability assay (Promega) was employed. Luminescence was read by using VictorV (Perkin Elmer) multilabel plate reader using the standard protocol for luminescence in 96 well plate. The experiment was performed in duplicate.
as §9
(§22) CRCs were analysed by GraphPad and IC50 values were calculated by non-linear regression using 4 parameter-logistic equation. IC50 (μM) values were reported in the final data table. The curve fittings were performed leaving free all the parameters. Any constrain were reported in the results table.

MV4-11 (MLL-AF4) [5] = assay: Proliferation study, CellTiterGlo, 4 days (Example 102), MV4-11; type: cell-based, human; conditions: MV4-11, 4 days treatment
Excerpt: as §12, §13, §14, §15, §16, §17, §18, §19, §20, §21, §9, §22

MOLM-13 (MLL-AF9) [6] = assay: Proliferation study, CellTiterGlo, 4 days (Example 102), MOLM-13; type: cell-based, human; conditions: MOLM-13, 4 days treatment
Excerpt: as §12, §13, §14, §15, §16, §17, §18, §19, §20, §21, §9, §22

IC50 (HL-60 [1]; HL-60, 96 h, HL-60, T4 (Day 4), read-out: IC50 T4 (Day 4)): > 5 µM
IC50 (HL-60 [1]; HL-60, HL-60, T7, read-out: IC50 T7): > 5 µM
IC50 (HL-60 [1]; HL-60, HL-60, T11, read-out: IC50 T11): > 5 µM
IC50 (HL-60 [1]; HL-60, HL-60, T14, read-out: IC50 T14): > 5 µM
IC50 (MOLM-13 (MLL-AF9) [2]; MOLM-13, 96 h, MOLM-13 (MLL-AF9), T4 (Day 4), read-out: IC50 T4 (Day 4)): > 5 µM
IC50 (MOLM-13 (MLL-AF9) [2]; MOLM-13, MOLM-13 (MLL-AF9), T7, read-out: IC50 T7): > 5 µM
IC50 (MOLM-13 (MLL-AF9) [2]; MOLM-13, MOLM-13 (MLL-AF9), T11, read-out: IC50 T11): > 5 µM
IC50 (MOLM-13 (MLL-AF9) [2]; MOLM-13, MOLM-13 (MLL-AF9), T14, read-out: IC50 T14): > 5 µM
IC50 (MV4-11 (MLL-AF4) [3]; MV4-11, 96 h, MV4-11 (MLL-AF4), T4 (Day 4), read-out: IC50 T4 (Day 4)): > 5 µM
IC50 (MV4-11 (MLL-AF4) [3]; MV4-11, MV4-11 (MLL-AF4), T7, read-out: IC50 T7): > 5 µM
IC50 (MV4-11 (MLL-AF4) [3]; MV4-11, MV4-11 (MLL-AF4), T11, read-out: IC50 T11): 3.31 µM
IC50 (MV4-11 (MLL-AF4) [3]; MV4-11, MV4-11 (MLL-AF4), T14, read-out: IC50 T14): 2.34 µM
IC50 (RS4-11 (MLL-AF4); RS4-11, 96 h, RS4-11 (MLL-AF4), T4 (Day 4), read-out: IC50 T4 (Day 4)): > 5 µM
IC50 (RS4-11 (MLL-AF4); RS4-11, RS4-11 (MLL-AF4), T7, read-out: IC50 T7): > 5 µM
IC50 (RS4-11 (MLL-AF4); RS4-11, RS4-11 (MLL-AF4), T11, read-out: IC50 T11): > 5 µM
Compound: Cc1nccc2[nH]c(-c3ccc(NC(=O)Cc4cc(-c5cccnc5)n[nH]4)cc3)nc12 [Compound 33]

HL-60 pIC50 (HL-60 [4]; CellTiterGlo): 6.38
IC50 (HL-60 [4]; CellTiterGlo, read-out: HL-60 IC50): 0.42 µM
MV4-11 (MLL-AF4) pIC50 (MV4-11 (MLL-AF4) [5]; CellTiterGlo): 6.73
IC50 (MV4-11 (MLL-AF4) [5]; CellTiterGlo, read-out: MV4-11 (MLL-AF4) IC50): 0.19 µM
MOLM-13 (MLL-AF9) pIC50 (MOLM-13 (MLL-AF9) [6]; CellTiterGlo): 6.63
IC50 (MOLM-13 (MLL-AF9) [6]; CellTiterGlo, read-out: MOLM-13 (MLL-AF9) IC50): 0.23 µM
Compound: Cc1c(CN2CCC(Nc3ncnc4sc(CC(F)(F)F)cc34)CC2)ccc2c1cc(C#N)n2Cc1cn[nH]c1 [MI-503, reference compound]
HL-60 % max (HL-60 [4]; maximal inhibition): 103%
MV4-11 (MLL-AF4) % max (MV4-11 (MLL-AF4) [5]; maximal inhibition): 100%
MOLM-13 (MLL-AF9) % max (MOLM-13 (MLL-AF9) [6]; maximal inhibition): 98%
inhibition of cell viability (in words) (HL-60 [1]; HL-60, LTP assay): fully inhibited cell viability
inhibition of cell viability (in words) (MOLM-13 (MLL-AF9) [2]; MOLM-13, LTP assay): fully inhibited cell viability
inhibition of cell viability (in words) (MV4-11 (MLL-AF4) [3]; MV4-11, LTP assay): fully inhibited cell viability
inhibition of cell viability (in words) (RS4-11 (MLL-AF4); RS4;11, LTP assay): fully inhibited cell viability
